Experimental data as given in US5840684A, “Glycopeptide antibiotic derivatives” (Eli Lilly and Company, priority 1995, dated 1998).

Key:
[1] = system: vancomycin-resistant enterococci; assay: broth micro-dilution, mean geometric MIC; type: cell-based, Enterococcus faecium and Enterococcus faecalis; conditions: enterococci, 24-hour incubation
[2] = system: vancomycin-susceptible enterococci; assay: broth micro-dilution, mean geometric MIC; type: cell-based, Enterococcus faecium and Enterococcus faecalis; conditions: enterococci, 24-hour incubation

Row | SMILES | mean geometric MIC, Vancomycin Resistant Strains [1] | mean geometric MIC, Vancomycin Sensitive Strains [2]
1 | CCCCCOc1ccc(-c2ccc(CNC3(C)CC(OC4C(Oc5c6cc7cc5Oc5ccc(cc5Cl)C(OC5CC(C)(N)C(O)C(C)O5)C5NC(=O)C(NC(=O)C7NC(=O)C(CC(N)=O)NC(=O)C(NC(=O)C(CC(C)C)NC)C(O)c7ccc(c(Cl)c7)O6)c6ccc(O)c(c6)-c6c(O)cc(O)cc6C(C(=O)O)NC5=O)OC(CO)C(O)C4O)OC(C)C3O)cc2)cc1 (centres unmarked) [Compound 40] | 0.50 µg/mL | 0.31 µg/mL
2 | CNC(CC(C)C)C(=O)NC1C(=O)NC(CC(N)=O)C(=O)NC2C(=O)NC3C(=O)NC(C(=O)NC(C(=O)O)c4cc(O)cc(O)c4-c4cc3ccc4O)C(OC3CC(C)(N)C(O)C(C)O3)c3ccc(c(Cl)c3)Oc3cc2cc(c3OC2OC(CO)C(O)C(O)C2OC2CC(C)(NCC(C)=Cc3ccc(C(C)(C)C)cc3)C(O)C(C)O2)Oc2ccc(cc2Cl)C1O (centres unmarked) [Compound 42] | 1.7 µg/mL | 0.089 µg/mL
3 | CNC(CC(C)C)C(=O)NC1C(=O)NC(CC(N)=O)C(=O)NC2C(=O)NC3C(=O)NC(C(=O)NC(C(=O)O)c4cc(O)cc(O)c4-c4cc3ccc4O)C(OC3CC(C)(N)C(O)C(C)O3)c3ccc(c(Cl)c3)Oc3cc2cc(c3OC2OC(CO)C(O)C(O)C2OC2CC(C)(NCc3cc(-c4ccccc4)nc4ccc(OC)cc34)C(O)C(C)O2)Oc2ccc(cc2Cl)C1O (centres unmarked) [Compound 45] | 2.0 µg/mL | 0.50 µg/mL
4 | CNC(CC(C)C)C(=O)NC1C(=O)NC(CC(N)=O)C(=O)NC2C(=O)NC3C(=O)NC(C(=O)NC(C(=O)O)c4cc(O)cc(O)c4-c4cc3ccc4O)C(OC3CC(C)(N)C(O)C(C)O3)c3ccc(c(Cl)c3)Oc3cc2cc(c3OC2OC(CO)C(O)C(O)C2OC2CC(C)(NCc3ccc(C(O)c4ccccc4)cc3)C(O)C(C)O2)Oc2ccc(cc2Cl)C1O (centres unmarked) [Compound 109] | 72 µg/mL | 0.22 µg/mL

Continued, values first:

Row | mean geometric MIC, Vancomycin Resistant Strains [1] | mean geometric MIC, Vancomycin Sensitive Strains [2] | SMILES
5 | 13 µg/mL | 0.50 µg/mL | CNC(CC(C)C)C(=O)NC1C(=O)NC(CC(N)=O)C(=O)NC2C(=O)NC3C(=O)NC(C(=O)NC(C(=O)O)c4cc(O)cc(O)c4-c4cc3ccc4O)C(OC3CC(C)(N)C(O)C(C)O3)c3ccc(c(Cl)c3)Oc3cc2cc(c3OC2OC(CO)C(O)C(O)C2OC2CC(C)(NCc3c(O)ccc4ccccc34)C(O)C(C)O2)Oc2ccc(cc2Cl)C1O (centres unmarked) [Compound 44]
6 | 4.7 µg/mL | 0.57 µg/mL | CNC(CC(C)C)C(=O)NC1C(=O)NC(CC(N)=O)C(=O)NC2C(=O)NC3C(=O)NC(C(=O)NC(C(=O)O)c4cc(O)cc(O)c4-c4cc3ccc4O)C(OC3CC(C)(N)C(O)C(C)O3)c3ccc(c(Cl)c3)Oc3cc2cc(c3OC2OC(CO)C(O)C(O)C2OC2CC(C)(NCC3CC=CCC3)C(O)C(C)O2)Oc2ccc(cc2Cl)C1O (centres unmarked) [Compound 47]
7 | 4.8 µg/mL | 0.50 µg/mL | CNC(CC(C)C)C(=O)NC1C(=O)NC(CC(N)=O)C(=O)NC2C(=O)NC3C(=O)NC(C(=O)NC(C(=O)O)c4cc(O)cc(O)c4-c4cc3ccc4O)C(OC3CC(C)(N)C(O)C(C)O3)c3ccc(c(Cl)c3)Oc3cc2cc(c3OC2OC(CO)C(O)C(O)C2OC2CC(C)(NCc3ccc4c(c3)OCO4)C(O)C(C)O2)Oc2ccc(cc2Cl)C1O (centres unmarked) [Compound 48]
